Measured values reported in PubChem BioAssay AID1919014 (Molecular Pharmacology Branch, DTP, NCI, 2023).

Test system: NCI-H1341 complex spheroids, percent test/control
Assay: Anticancer human tumor NCI-H1341 cell line growth inhibition [AhR];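 further: spheroids exposed to agents for seven days before readout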
Settings: for IC50: curve of first compound; for viability, T/C: stronger effect = lower value
Summary of the method: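 Complex tumor spheroids co-cultured with HUVEC and human MSC stroma; AhR antagonists tested in combination with standard-of-care and investigational agents. Top concentration at or near clinical Cmax (else 10 microM), half-log dilutions; growth expressed as percent test/control.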

[1] = second compound 0.1 µM, first compound 0.0316 µM
[2] = second compound 0.1 µM, first compound 0.1 µM
[3] = second compound 0.316 µM, first compound 0.0316 µM
[4] = second compound 0.316 µM, first compound 0.1 µM
[5] = second compound 1 µM, first compound 0.0316 µM
[6] = second compound 1 µM, first compound 0.1 µM
[7] = second compound 3.16 µM, first compound 0.0316 µM
[8] = second compound 3.16 µM, first compound 0.1 µM
[9] = second compound 10 µM, first compound 0.0316 µM
[10] = second compound 10 µM, first compound 0.1 µM

Q: How did the IC50 (second compound 0.1 µM) turn out when `Cn1ncnc1C1c2n[nH]c(=O)c3cc(F)cc(c23)NC1c1ccc(F)cc1` (stereo not given) + CC(CO)NC(=O)c1cc(-c2ccc(Cl)cc2)nn(-c2cnn(C)c2)c1=O was run?
A: Its IC50 is > 100 nM.

Q: And the IC50 (second compound 0.316 µM)?
A: The IC50 was > 100 nM.

Q: What about the IC50 (second compound 1 µM) of the same compound?
A: The IC50 was > 100 nM.

Q: What about the IC50 (second compound 3.16 µM) of the same compound?
A: Its IC50 is > 100 nM.

Q: What about the IC50 (second compound 10 µM) of the same compound?
A: Its IC50 is > 100 nM.

Q: And the viability, T/C (second compound 0.1 µM, first compound 0.000316 µM)?
A: The viability, T/C was 79.2%.

Q: And the viability, T/C (second compound 0.1 µM, first compound 0.001 µM)?
A: Its viability, T/C is 83.4%.

Q: What about the viability, T/C (second compound 0.1 µM, first compound 0.00316 µM) of the same compound?
A: Its viability, T/C is 84%.

Q: What about the viability, T/C (second compound 0.1 µM, first compound 0.01 µM) of the same compound?
A: Its viability, T/C is 73.5%.

Q: And the viability, T/C [1]?
A: Its viability, T/C is 83.2%.

Q: What about the viability, T/C [2] of the same compound?
A: The viability, T/C was 77.6%.

Q: And the viability, T/C (second compound 0.316 µM, first compound 0.000316 µM)?
A: Its viability, T/C is 85%.

Q: And the viability, T/C (second compound 0.316 µM, first compound 0.001 µM)?
A: The viability, T/C was 95.7%.

Q: What about the viability, T/C (second compound 0.316 µM, first compound 0.00316 µM) of the same compound?
A: Its viability, T/C is 88.8%.

Q: And the viability, T/C (second compound 0.316 µM, first compound 0.01 µM)?
A: The viability, T/C was 76.9%.

Q: And the viability, T/C [3]?
A: The viability, T/C was 91.8%.

Q: And the viability, T/C [4]?
A: The viability, T/C was 72.3%.

Q: What about the viability, T/C (second compound 1 µM, first compound 0.000316 µM) of the same compound?
A: Its viability, T/C is 72.5%.

Q: What about the viability, T/C (second compound 1 µM, first compound 0.001 µM) of the same compound?
A: The viability, T/C was 95.4%.

Q: And the viability, T/C (second compound 1 µM, first compound 0.00316 µM)?
A: Its viability, T/C is 77.5%.

Q: What about the viability, T/C (second compound 1 µM, first compound 0.01 µM) of the same compound?
A: Its viability, T/C is 85.7%.

Q: And the viability, T/C [5]?
A: The viability, T/C was 80.5%.

Q: What about the viability, T/C [6] of the same compound?
A: The viability, T/C was 73.9%.

Q: And the viability, T/C (second compound 3.16 µM, first compound 0.000316 µM)?
A: The viability, T/C was 87.5%.

Q: And the viability, T/C (second compound 3.16 µM, first compound 0.001 µM)?
A: The viability, T/C was 93.8%.

Q: What about the viability, T/C (second compound 3.16 µM, first compound 0.00316 µM) of the same compound?
A: The viability, T/C was 77.1%.

Q: And the viability, T/C (second compound 3.16 µM, first compound 0.01 µM)?
A: The viability, T/C was 62.4%.

Q: And the viability, T/C [7]?
A: Its viability, T/C is 76.2%.

Q: And the viability, T/C [8]?
A: The viability, T/C was 65.9%.

Q: What about the viability, T/C (second compound 10 µM, first compound 0.000316 µM) of the same compound?
A: Its viability, T/C is 72.4%.

Q: What about the viability, T/C (second compound 10 µM, first compound 0.001 µM) of the same compound?
A: Its viability, T/C is 84.2%.

Q: What about the viability, T/C (second compound 10 µM, first compound 0.00316 µM) of the same compound?
A: Its viability, T/C is 81%.

Q: And the viability, T/C (second compound 10 µM, first compound 0.01 µM)?
A: Its viability, T/C is 65.2%.

Q: And the viability, T/C [9]?
A: Its viability, T/C is 66.1%.

Q: And the viability, T/C [10]?
A: The viability, T/C was 69.2%.

Q: Which IC50 (second compound 0.1 µM) does the source give for `NS(=O)(=O)OCC1CC(n2ccc3c(NC4CCc5ccccc54)ncnc32)CC1O` (stereo not given) + CC(CO)NC(=O)c1cc(-c2ccc(Cl)cc2)nn(-c2cnn(C)c2)c1=O here?
A: Its IC50 is < 31.6 nM.

Q: And the IC50 (second compound 0.316 µM)?
A: The IC50 was < 31.6 nM.

Q: And the IC50 (second compound 1 µM)?
A: The IC50 was < 31.6 nM.

Q: What about the IC50 (second compound 3.16 µM) of the same compound?
A: Its IC50 is < 31.6 nM.

Q: And the IC50 (second compound 10 µM)?
A: The IC50 was < 31.6 nM.

Q: And the viability, T/C [1]?
A: Its viability, T/C is 33%.

Q: What about the viability, T/C [2] of the same compound?
A: The viability, T/C was 28%.

Q: And the viability, T/C (second compound 0.1 µM, first compound 0.316 µM)?
A: The viability, T/C was 11%.

Q: What about the viability, T/C (second compound 0.1 µM, first compound 1 µM) of the same compound?
A: The viability, T/C was 5.48%.

Q: And the viability, T/C (second compound 0.1 µM, first compound 3.16 µM)?
A: Its viability, T/C is 5.17%.

Q: What about the viability, T/C (second compound 0.1 µM, first compound 10 µM) of the same compound?
A: Its viability, T/C is 3.34%.

Q: And the viability, T/C [3]?
A: Its viability, T/C is 37.6%.

Q: And the viability, T/C [4]?
A: The viability, T/C was 28.2%.

Q: And the viability, T/C (second compound 0.316 µM, first compound 0.316 µM)?
A: The viability, T/C was 13.5%.

Q: And the viability, T/C (second compound 0.316 µM, first compound 1 µM)?
A: The viability, T/C was 6.9%.

Q: What about the viability, T/C (second compound 0.316 µM, first compound 3.16 µM) of the same compound?
A: The viability, T/C was 3.38%.

Q: What about the viability, T/C (second compound 0.316 µM, first compound 10 µM) of the same compound?
A: Its viability, T/C is 3.76%.

Q: And the viability, T/C [5]?
A: Its viability, T/C is 39.7%.

Q: What about the viability, T/C [6] of the same compound?
A: The viability, T/C was 31.2%.

Q: And the viability, T/C (second compound 1 µM, first compound 0.316 µM)?
A: The viability, T/C was 13.1%.

Q: What about the viability, T/C (second compound 1 µM, first compound 1 µM) of the same compound?
A: The viability, T/C was 6.82%.

Q: What about the viability, T/C (second compound 1 µM, first compound 3.16 µM) of the same compound?
A: The viability, T/C was 4.46%.

Q: And the viability, T/C (second compound 1 µM, first compound 10 µM)?
A: Its viability, T/C is 3.84%.

Q: And the viability, T/C [7]?
A: The viability, T/C was 32.1%.

Q: And the viability, T/C [8]?
A: Its viability, T/C is 27.6%.

Q: What about the viability, T/C (second compound 3.16 µM, first compound 0.316 µM) of the same compound?
A: The viability, T/C was 14.8%.

Q: What about the viability, T/C (second compound 3.16 µM, first compound 1 µM) of the same compound?
A: The viability, T/C was 7.34%.

Q: What about the viability, T/C (second compound 3.16 µM, first compound 3.16 µM) of the same compound?
A: Its viability, T/C is 5.49%.

Q: And the viability, T/C (second compound 3.16 µM, first compound 10 µM)?
A: The viability, T/C was 4.2%.

Q: And the viability, T/C [9]?
A: Its viability, T/C is 29.1%.

Q: What about the viability, T/C [10] of the same compound?
A: Its viability, T/C is 23.1%.

Q: And the viability, T/C (second compound 10 µM, first compound 0.316 µM)?
A: The viability, T/C was 13.8%.

Q: And the viability, T/C (second compound 10 µM, first compound 1 µM)?
A: Its viability, T/C is 7.32%.

Q: And the viability, T/C (second compound 10 µM, first compound 3.16 µM)?
A: The viability, T/C was 5.1%.

Q: What about the viability, T/C (second compound 10 µM, first compound 10 µM) of the same compound?
A: The viability, T/C was 2.95%.
